Read-outs that look alike come from different tables or passages of the source.
Columns and labels:
Intrinsic factor [1] = molecular target: T1, Intrinsic factor (Homo sapiens, UniProt P27352); conditions: general statement in description; read-out: IF binding affinity (Kd); cited from earlier work
T1 construct: purchased Xeragenx LLC XGX-003; host or cells: Arabidopsis (transgenic plant)

Intrinsic factor [2] = molecular target: T1, Intrinsic factor; test: IF binding, chase experiment with 57Co radiolabeled B12; conditions: read-out: binding affinity to IF
From the text: Peptides were purchased through CSBio (Menlo Park, Calif.) and all materials were purchased through Sigma-Aldrich unless stated otherwise. Apo-IF was supplied by Xeragenx LLC (cat no: XGX-003). […] IF used in these assays was produced in the plant Arabidopsis in the apo-form and of high purity

T1 sequence (P27352 19-417): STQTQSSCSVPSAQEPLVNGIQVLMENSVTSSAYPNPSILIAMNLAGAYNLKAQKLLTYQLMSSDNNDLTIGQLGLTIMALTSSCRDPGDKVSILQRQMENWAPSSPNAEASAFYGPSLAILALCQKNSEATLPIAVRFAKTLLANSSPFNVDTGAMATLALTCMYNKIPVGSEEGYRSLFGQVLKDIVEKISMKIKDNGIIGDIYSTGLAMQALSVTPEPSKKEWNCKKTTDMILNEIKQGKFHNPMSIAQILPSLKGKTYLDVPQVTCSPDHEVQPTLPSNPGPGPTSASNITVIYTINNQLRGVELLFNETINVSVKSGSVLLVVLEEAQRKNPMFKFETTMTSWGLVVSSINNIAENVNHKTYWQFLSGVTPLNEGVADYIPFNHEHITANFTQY

cyanocobalamin [Compound B12]
Kd (Intrinsic factor [1]): ~0.001 nM | Kd (Intrinsic factor [2]): 0.12 nM
